The results in this text go back to patent US20230278981A1, “DICHLOROPHENOL HSD17B13 INHIBITORS AND USES THEREOF” (INIPHARM, INC., priority 2020, published 2023).

In this experiment the target is HSD17B13 (Homo sapiens (Human), UniProt Q7Z5P4). In words: LC/MS estrone detection assay: conversion of estradiol to estrone by HSD17B13. It counts as biochemical. To be noted: 4 μM estradiol, 6 mM NAD+, 30 nM HSD17B13 enzyme (E. coli expressed His-tagged), 2 hours at 26.5° C. The method in brief:
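His-tagged E. coli-expressed HSD17B13 (30 nM) with 4 μM estradiol and 6 mM NAD+ in 1 M potassium phosphate pH 7.4, 0.5% DMSO, 2 h at 26.5° C. Estrone and estradiol quantified by LC-MS/MS after MeCN quench with D4-estrone internal standard; activity as % of uninhibited enzyme, IC50 by four-parameter fit, duplicates.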

Chain of HSD17B13 (Q7Z5P4 20-300): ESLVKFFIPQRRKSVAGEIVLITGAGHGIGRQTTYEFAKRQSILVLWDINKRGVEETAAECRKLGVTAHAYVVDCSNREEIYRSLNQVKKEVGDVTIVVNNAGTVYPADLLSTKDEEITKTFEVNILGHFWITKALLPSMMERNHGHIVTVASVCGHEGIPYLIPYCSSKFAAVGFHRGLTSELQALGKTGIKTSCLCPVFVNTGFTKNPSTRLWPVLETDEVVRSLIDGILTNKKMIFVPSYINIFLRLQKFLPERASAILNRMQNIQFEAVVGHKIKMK

A word on the IC50: it is the point on the concentration scale where inhibition reaches its midpoint. In the case of `O=C(Nc1cccc2ncn(Cc3ccccc3OC(F)(F)F)c(=O)c12)c1cc(Cl)c(O)c(Cl)c1` [Example 2, 3,5-dichloro-4-hydroxy-N-(4-oxo-3-(2-(trifluoromethoxy)benzyl)-3,4-dihydroquinazolin-5-yl)benzamide], the IC50 is ≤ 100 nM.
The same measure for `O=C(Nc1cccc2ncn(Cc3ncccc3F)c(=O)c12)c1cc(Cl)c(O)c(Cl)c1` [Example 130, 3,5-dichloro-N-{3-[(3-fluoropyridin-2-yl)methyl]-4-oxo-3,4-dihydroquinazolin-5-yl}-4-hydroxybenzamide]: 100 to 500 nM; for `Cc1ccc(NC(=O)c2cc(Cl)c(O)c(Cl)c2)c2c(=O)n(Cc3ccccc3OC(F)(F)F)c(C(F)(F)F)nc12` [Example 112, 3,5-dichloro-4-hydroxy-N-(8-methyl-4-oxo-3-(2-(trifluoromethoxy)benzyl)-2-(trifluoromethyl)-3,4-dihydroquinazolin-5-yl)benzamide]: 100 to 500 nM.
As for `O=C(Nc1cccc2ncn(Cc3ccccc3OC(F)(F)F)c(=O)c12)c1cc(Cl)c(O)c(Cl)n1` [Example 23, 4,6-dichloro-5-hydroxy-N-(4-oxo-3-{[2-(trifluoromethoxy)phenyl]methyl}-3,4-dihydroquinazolin-5-yl)pyridine-2-carboxamide], the figure is 100 to 500 nM; as for `C[C@H](c1cccc(F)c1)n1cnc2cccc(NC(=O)c3cc(Cl)c(O)c(Cl)c3)c2c1=O` [Example 47, (R)-3,5-dichloro-N-(3-(1-(3-fluorophenyl)ethyl)-4-oxo-3,4-dihydroquinazolin-5-yl)-4-hydroxybenzamide], ≤ 100 nM; as for `Cc1nc2c(Cl)ccc(NC(=O)c3cc(Cl)c(O)c(Cl)n3)c2c(=O)n1Cc1ccccc1C(F)(F)F` [Example 170, 4,6-dichloro-N-(8-chloro-2-methyl-4-oxo-3-(2-(trifluoromethyl)benzyl)-3,4-dihydroquinazolin-5-yl)-5-hydroxypicolinamide], 100 to 500 nM.
As for `O=C(Nc1cccc2ncn(Cc3cccnc3C(F)(F)F)c(=O)c12)c1cc(Cl)c(O)c(Cl)c1` [Example 82, 3,5-dichloro-4-hydroxy-N-(4-oxo-3-((2-(trifluoromethyl)pyridin-3-yl)methyl)-3,4-dihydroquinazolin-5-yl)benzamide], the figure is ≤ 100 nM; as for `O=C(Nc1scnc1C(=O)NCc1ccccc1OC(F)(F)F)c1cc(Cl)c(O)c(Cl)c1` [Example 32, 5-(3,5-dichloro-4-hydroxybenzamido)-N-(2-(trifluoromethoxy)benzyl)thiazole-4-carboxamide], ≤ 100 nM.
With `N#Cc1cc(C(=O)Nc2cccc3ncn(Cc4cccc(C(F)(F)F)c4)c(=O)c23)cc(Cl)c1O` [Example 68, 3-chloro-5-cyano-4-hydroxy-N-(4-oxo-3-(3-(trifluoromethyl)benzyl)-3,4-dihydroquinazolin-5-yl)benzamide], the half-inhibitory concentration (IC50) lay within 100 to 500 nM.
`O=C(Nc1sc(Cl)cc1C(=O)NCCc1ccccc1OC(F)(F)F)c1cc(Cl)c(O)c(Cl)c1` [Example 38, 5-chloro-2-(3,5-dichloro-4-hydroxybenzamido)-N-(2-(trifluoromethoxy)phenethyl) thiophene-3-carboxamide] gave an IC50 of 100 to 500 nM.
As for `O=C(Nc1cccc2ncn(C3(c4ccccc4)CC3)c(=O)c12)c1cc(Cl)c(O)c(Cl)c1` [Example 20, 3,5-dichloro-4-hydroxy-N-(4-oxo-3-(1-phenylcyclopropyl)-3,4-dihydroquinazolin-5-yl) benzamide], the figure is 1000 to 10000 nM.
For `O=C(Nc1cccc2ncn(Cc3ccccc3-c3ccccn3)c(=O)c12)c1cc(Cl)c(O)c(Cl)n1` [Example 110, 4,6-dichloro-5-hydroxy-N-(4-oxo-3-(2-(pyridin-2-yl)benzyl)-3,4-dihydroquinazolin-5-yl)picolinamide], the IC50 is 100 to 500 nM.
`O=C(Nc1cccc2ncn(Cc3ccc(OCCO)cc3)c(=O)c12)c1cc(Cl)c(O)c(Cl)c1` [Example 58, 3,5-dichloro-4-hydroxy-N-(3-(4-(2-hydroxyethoxy)benzyl)-4-oxo-3,4-dihydroquinazolin-5-yl)benzamide] had an IC50 of 100 to 500 nM.
With `N#Cc1ccccc1Cn1cnc2cccc(NC(=O)c3cc(Cl)c(O)c(Cl)c3)c2c1=O` [Example 53, 3,5-dichloro-N-(3-(2-cyanobenzyl)-4-oxo-3,4-dihydroquinazolin-5-yl)-4-hydroxybenzamide], the IC50 is ≤ 100 nM.
As for `CC(c1ccccc1OC(F)(F)F)n1cnc2cccc(NC(=O)c3cc(Cl)c(O)c(Cl)c3)c2c1=O` (stereo not shown) [Example 74, 3,5-dichloro-4-hydroxy-N-(4-oxo-3-(1-(2-(trifluoromethoxy)phenyl)ethyl)-3,4-dihydroquinazolin-5-yl)benzamide], the figure is 100 to 500 nM.
For `O=C(Nc1cccc2ncn(Cc3n[nH]c4ccccc34)c(=O)c12)c1cc(Cl)c(O)c(Cl)c1` [Example 67, N-(3-((1H-indazol-3-yl)methyl)-4-oxo-3,4-dihydroquinazolin-5-yl)-3,5-dichloro-4-hydroxybenzamide], the IC50 was ≤ 100 nM.
`O=C(NC1CCCC1C(=O)NCc1ccccc1OC(F)(F)F)c1cc(Cl)c(O)c(Cl)n1` (stereo not shown) [Example 134, 4,6-dichloro-5-hydroxy-N-[2-({[2-(trifluoromethoxy)phenyl]methyl}carbamoyl)cyclopentyl] pyridine-2-carboxamide] registered an IC50 of 500 to 1000 nM.
On to `O=C(Nc1cccc2ncn(Cc3ccc(F)cc3)c(=O)c12)c1cc(Cl)c(O)c(Cl)c1` [Example 7, 3,5-dichloro-N-(3-(4-fluorobenzyl)-4-oxo-3,4-dihydroquinazolin-5-yl)-4-hydroxybenzamide], for which the IC50 fell in the range of 100 to 500 nM.
Regarding `O=C(Nc1cccc2ncn([C@H]3CC[C@@H]3c3ccccc3)c(=O)c12)c1cc(Cl)c(O)c(Cl)c1` [Example 121, 3,5-dichloro-4-hydroxy-N-(4-oxo-3-((1S,2R)-2-phenylcyclobutyl)-3,4-dihydroquinazolin-5-yl)benzamide], the IC50 fell in the range of 100 to 500 nM.
Regarding `Cc1nc2cccc(NC(=O)c3cc(Cl)c(O)c(Cl)c3)c2c(=O)n1Cc1ccccc1OC(F)(F)F` [Example 64, 3,5-dichloro-4-hydroxy-N-(2-methyl-4-oxo-3-(2-(trifluoromethoxy)benzyl)-3,4-dihydroquinazolin-5-yl)benzamide], the concentration for half-maximal inhibition (IC50) was ≤ 100 nM.
`Cc1ccc(NC(=O)c2cc(Cl)c(O)c(Cl)c2)c2c(=O)n(Cc3cccc(C(F)(F)F)n3)c(C)nc12` [Example 199, 3,5-dichloro-N-(2,8-dimethyl-4-oxo-3-((6-(trifluoromethyl)pyridin-2-yl)methyl)-3,4-dihydroquinazolin-5-yl)-4-hydroxybenzamide]: the IC50 lay in the range of 500 to 1000 nM.
`Cc1nc2c(F)ccc(NC(=O)c3cc(Cl)c(O)c(Cl)n3)c2c(=O)n1Cc1ncccc1C(F)(F)F` [Example 155, 4,6-dichloro-N-(8-fluoro-2-methyl-4-oxo-3-((3-(trifluoromethyl)pyridin-2-yl)methyl)-3,4-dihydroquinazolin-5-yl)-5-hydroxypicolinamide] returned an IC50 of 100 to 500 nM.
`O=C(Nc1cccc2ncn(Cc3ccc(F)cc3)c(=O)c12)c1cc(Cl)c(O)c(Cl)n1` [Example 42, 4,6-dichloro-N-{3-[(4-fluorophenyl)methyl]-4-oxo-3,4-dihydroquinazolin-5-yl}-5-hydroxypyridine-2-carboxamide] gave an IC50 of 100 to 500 nM.
On to `O=C(Nc1scnc1C(=O)NCc1ccccc1C(F)(F)F)c1cc(Cl)c(O)c(Cl)c1` [Example 182, 5-(3,5-dichloro-4-hydroxybenzamido)-N-(2-(trifluoromethyl)benzyl)thiazole-4-carboxamide], for which the IC50 is ≤ 100 nM.
As for `Cc1ccc(NC(=O)c2cc(Cl)c(O)c(Cl)c2)c2c(=O)n(Cc3ncccc3C(F)(F)F)c(C)nc12` [Example 146, 3,5-dichloro-N-(2,8-dimethyl-4-oxo-3-((3-(trifluoromethyl)pyridin-2-yl)methyl)-3,4-dihydroquinazolin-5-yl)-4-hydroxybenzamide], the figure is ≤ 100 nM; as for `O=C(Nc1cccc2ncn(Cc3cccnc3Cl)c(=O)c12)c1cc(Cl)c(O)c(Cl)n1` [Example 129, 4,6-dichloro-N-{3-[(2-chloropyridin-3-yl)methyl]-4. oxo-3,4-dihydroquinazolin-5-yl}-5-hydroxypyridine-2-carboxamide], 100 to 500 nM; as for `Cc1nc2c(F)ccc(NC(=O)c3cc(Cl)c(O)c(Cl)c3)c2c(=O)n1Cc1ccccc1C(F)(F)F` [Example 158, 3,5-dichloro-N-(8-fluoro-2-methyl-4-oxo-3-(2-(trifluoromethyl)benzyl)-3,4-dihydroquinazolin-5-yl)-4-hydroxybenzamide], ≤ 100 nM.
The compound `O=C(Nc1cccc2ncn(Cc3ccc(OC(F)(F)F)cc3)c(=O)c12)c1cc(Cl)c(O)c(Cl)c1` [Example 8, 3,5-dichloro-4-hydroxy-N-(4-oxo-3-(4-(trifluoromethoxy)benzyl)-3,4-dihydroquinazolin-5-yl)benzamide] had an IC50 of 100 to 500 nM.
`O=C(Nc1ccnc2[nH]c(=O)n(Cc3ccccc3OC(F)(F)F)c(=O)c12)c1cc(Cl)c(O)c(Cl)c1` [Example 95, 3,5-dichloro-N-(2,4-dioxo-3-(2-(trifluoromethoxy)benzyl)-1,2,3,4-tetrahydropyrido[2,3-d]pyrimidin-5-yl)-4-hydroxybenzamide] had an IC50 of 100 to 500 nM.
`O=C(Nc1cccc2ncn(Cc3cocn3)c(=O)c12)c1cc(Cl)c(O)c(Cl)c1` [Example 15, 3,5-dichloro-4-hydroxy-N-(3-(oxazol-4-ylmethyl)-4-oxo-3,4-dihydroquinazolin-5-yl)benzamide] registered an IC50 of 500 to 1000 nM.
The same measure for `CC(C)(C)n1ccc(Cn2cnc3cccc(NC(=O)c4cc(Cl)c(O)c(Cl)c4)c3c2=O)n1` [Example 52, N-(3-((1-(tert-butyl)-1H-pyrazol-3-yl)methyl)-4-oxo-3,4-dihydroquinazolin-5-yl)-3,5-dichloro-4-hydroxybenzamide]: 500 to 1000 nM.
